# Experimental data taken from PubChem BioAssay AID1259407 (Chemical Carcinogenesis Research Information System (CCRIS), 2018).
# The source made the active and inactive calls. The rule behind the calls is not given here.
# Tested on: CCRIS mutagenicity, Ames/micronucleus/aberration tests
# Test: CCRIS mutagenicity studies
smiles,measurement,setting,value
O=C(O)C(=O)O,mutagenic call,"Test System: AMES SALMONELLA TYPHIMURIUM, Strain/Indicator: TA97, Metabolic Activation: NONE, Method: PREINCUBATION",inactive; negative
same,mutagenic call,"Test System: AMES SALMONELLA TYPHIMURIUM, Strain/Indicator: TA97, Metabolic Activation: RAT, LIVER, S-9, PHENOBARBITAL AND 5,6-BENZOFLAVONE, Method: PREINCUBATION",inactive; negative
same,mutagenic call,"Test System: AMES SALMONELLA TYPHIMURIUM, Strain/Indicator: TA97, Metabolic Activation: S-9, Method: PREINCUBATION",inactive; negative
same,mutagenic call,"Test System: AMES SALMONELLA TYPHIMURIUM, Strain/Indicator: TA98, Metabolic Activation: NONE, Method: PREINCUBATION",inactive; negative
same,mutagenic call,"Test System: AMES SALMONELLA TYPHIMURIUM, Strain/Indicator: TA98, Metabolic Activation: RAT, LIVER, S-9, PHENOBARBITAL AND 5,6-BENZOFLAVONE, Method: PREINCUBATION",inactive; negative
same,mutagenic call,"Test System: AMES SALMONELLA TYPHIMURIUM, Strain/Indicator: TA98, Metabolic Activation: RAT, LIVER, S-9, SODIUM PHENOBARBITAL AND 5,6-BENZOFLAVONE, Method: PREINCUBATION",inactive; negative
same,mutagenic call,"Test System: AMES SALMONELLA TYPHIMURIUM, Strain/Indicator: TA100, Metabolic Activation: NONE, Method: PREINCUBATION",inactive; negative
same,mutagenic call,"Test System: AMES SALMONELLA TYPHIMURIUM, Strain/Indicator: TA100, Metabolic Activation: NONE, Method: PREINCUBATION (11 HR GROWTH PERIOD FOR BACTERIA)",active; positive
same,mutagenic call,"Test System: AMES SALMONELLA TYPHIMURIUM, Strain/Indicator: TA100, Metabolic Activation: RAT, LIVER, S-9, PCB, Method: PREINCUBATION (11 HR GROWTH PERIOD FOR BACTERIA)",inactive; negative
same,mutagenic call,"Test System: AMES SALMONELLA TYPHIMURIUM, Strain/Indicator: TA100, Metabolic Activation: RAT, LIVER, S-9, PHENOBARBITAL AND 5,6-BENZOFLAVONE, Method: PREINCUBATION",inactive; negative
same,mutagenic call,"Test System: AMES SALMONELLA TYPHIMURIUM, Strain/Indicator: TA100, Metabolic Activation: RAT, LIVER, S-9, SODIUM PHENOBARBITAL AND 5,6-BENZOFLAVONE, Method: PREINCUBATION",inactive; negative
same,mutagenic call,"Test System: AMES SALMONELLA TYPHIMURIUM, Strain/Indicator: TA102, Metabolic Activation: NONE, Method: PREINCUBATION (5, 7 OR 11 HR GROWTH PERIOD FOR BACTERIA)",active; positive
same,mutagenic call,"Test System: AMES SALMONELLA TYPHIMURIUM, Strain/Indicator: TA102, Metabolic Activation: RAT, LIVER, S-9, PCB, Method: PREINCUBATION (5 OR 7 HR GROWTH PERIOD FOR BACTERIA)",inactive; negative
same,mutagenic call,"Test System: AMES SALMONELLA TYPHIMURIUM, Strain/Indicator: TA102, Metabolic Activation: RAT, LIVER, S-9, PHENOBARBITAL AND 5,6-BENZOFLAVONE, Method: PREINCUBATION",inactive; negative
same,mutagenic call,"Test System: AMES SALMONELLA TYPHIMURIUM, Strain/Indicator: TA102, Metabolic Activation: RAT, LIVER, S-9, SODIUM PHENOBARBITAL AND 5,6-BENZOFLAVONE, Method: PREINCUBATION",inactive; negative
same,mutagenic call,"Test System: AMES SALMONELLA TYPHIMURIUM, Strain/Indicator: TA102, Metabolic Activation: S-9, Method: PREINCUBATION",inactive; negative
same,mutagenic call,"Test System: AMES SALMONELLA TYPHIMURIUM, Strain/Indicator: TA104, Metabolic Activation: NONE, Method: PREINCUBATION",inactive; negative
same,mutagenic call,"Test System: AMES SALMONELLA TYPHIMURIUM, Strain/Indicator: TA104, Metabolic Activation: RAT, LIVER, S-9, PHENOBARBITAL AND 5,6-BENZOFLAVONE, Method: PREINCUBATION",inactive; negative
same,mutagenic call,"Test System: AMES SALMONELLA TYPHIMURIUM, Strain/Indicator: TA104, Metabolic Activation: RAT, LIVER, S-9, SODIUM PHENOBARBITAL AND 5,6-BENZOFLAVONE, Method: PREINCUBATION",inactive; negative
same,mutagenic call,"Test System: AMES SALMONELLA TYPHIMURIUM, Strain/Indicator: TA1535, Metabolic Activation: NONE, Method: PREINCUBATION",inactive; negative
same,mutagenic call,"Test System: AMES SALMONELLA TYPHIMURIUM, Strain/Indicator: TA1535, Metabolic Activation: RAT, LIVER, S-9, SODIUM PHENOBARBITAL AND 5,6-BENZOFLAVONE, Method: PREINCUBATION",inactive; negative
same,mutagenic call,"Test System: AMES SALMONELLA TYPHIMURIUM, Strain/Indicator: TA1537, Metabolic Activation: NONE, Method: PREINCUBATION",inactive; negative
same,mutagenic call,"Test System: AMES SALMONELLA TYPHIMURIUM, Strain/Indicator: TA1537, Metabolic Activation: RAT, LIVER, S-9, SODIUM PHENOBARBITAL AND 5,6-BENZOFLAVONE, Method: PREINCUBATION",inactive; negative
same,mutagenic call,"Test System: E. COLI, Strain/Indicator: WP2UVRA/PKM101, Metabolic Activation: NONE, Method: PREINCUBATION",inactive; negative
same,mutagenic call,"Test System: E. COLI, Strain/Indicator: WP2UVRA/PKM101, Metabolic Activation: RAT, LIVER, S-9, SODIUM PHENOBARBITAL AND 5,6-BENZOFLAVONE, Method: PREINCUBATION",inactive; negative
same,mutagenic call,"Test System: E. COLI, Strain/Indicator: WP2UVRA, Metabolic Activation: NONE, Method: PREINCUBATION",inactive; negative
same,mutagenic call,"Test System: E. COLI, Strain/Indicator: WP2UVRA, Metabolic Activation: RAT, LIVER, S-9, SODIUM PHENOBARBITAL AND 5,6-BENZOFLAVONE, Method: PREINCUBATION",inactive; negative
